Earlier results as cited in US10751297B2, “Composition and method for treating skin conditions” (priority 2017, dated 2020).

How the values were obtained:
[1] = system: early viral protein synthesis
[2] = system: cells
[3] = system: herpes simplex virus; settings: in vitro
[4] = system: HIV-1; settings: in vitro
[5] = system: respiratory syncytial virus; settings: in vitro
[6] = system: acyclovir-resistant HSV strains
[7] = system: Friend virus; settings: in vivo

Structure (SMILES): CCCCCCCCCCCCCCCCCCCCCCO [docosanol]
- inhibition of early viral protein synthesis [1]: more than 80%
- concentration up to which not cytotoxic [2]: up to 300 mM
- antiviral activity against herpes simplex virus [3]: potent antiviral activity
- antiviral activity against HIV-1 [4]: potent antiviral activity
- antiviral activity against respiratory syncytial virus [5]: potent antiviral activity
- effectiveness in acyclovir-resistant HSV strains [6]: effective
- antiviral activity against Friend virus [7]: potent antiviral activity
